Values of other authors in patent US7087219B2, “Toothpaste containing anticancer agents” (priority 2003, dated 2006).

Experiments:
[1] = according to publications and patents (Burzynski et al. 1986)
[2] = general statement; marketed as a food supplement

For `O=C1CCC(NC(=O)Cc2ccccc2)C(=O)N1` (centres unmarked) [3-N-phenylacetylamino-2,6-piperidinedione], the “efficacy in treating cancers in clinical trials” value [1] is given as “effective in treating a variety of cancers in clinical trials” and the toxicity [2] is given as “completely non-toxic”.
